The text below walks through data of ChEMBL document CHEMBL3997792, “Identification of the First Selective Activin Receptor-Like Kinase 1 Inhibitor, a Reversible Version of L-783277” (J Med Chem, 2017).

Data set [1] has as its target T1, Vascular endothelial growth factor receptor 3 (Homo sapiens, UniProt P35916). As to the kind of experiment: Inhibition of human FLT4 using poly[Glu:Tyr] (4:1) as substrate in presence of [gamma-33P]-ATP by scintillation counting method.
Data set [2] deals with T2, Vascular endothelial growth factor receptor 2 (Homo sapiens, UniProt P35968). As to the kind of experiment: Inhibition of human KDR using poly[Glu:Tyr] (4:1) as substrate in presence of [gamma-33P]-ATP by scintillation counting method.
Data set [3] concerns the target Dual specificity mitogen-activated protein kinase kinase 6 (Homo sapiens, UniProt P52564). Put plainly: Inhibition of human MKK6 using p38a as substrate in presence of [gamma-33P]-ATP by scintillation counting method.
In data set [4] the target is T3, Activin receptor type-1-like (Mus musculus) (UniProt Q61288).
T3 sequence (whole entry): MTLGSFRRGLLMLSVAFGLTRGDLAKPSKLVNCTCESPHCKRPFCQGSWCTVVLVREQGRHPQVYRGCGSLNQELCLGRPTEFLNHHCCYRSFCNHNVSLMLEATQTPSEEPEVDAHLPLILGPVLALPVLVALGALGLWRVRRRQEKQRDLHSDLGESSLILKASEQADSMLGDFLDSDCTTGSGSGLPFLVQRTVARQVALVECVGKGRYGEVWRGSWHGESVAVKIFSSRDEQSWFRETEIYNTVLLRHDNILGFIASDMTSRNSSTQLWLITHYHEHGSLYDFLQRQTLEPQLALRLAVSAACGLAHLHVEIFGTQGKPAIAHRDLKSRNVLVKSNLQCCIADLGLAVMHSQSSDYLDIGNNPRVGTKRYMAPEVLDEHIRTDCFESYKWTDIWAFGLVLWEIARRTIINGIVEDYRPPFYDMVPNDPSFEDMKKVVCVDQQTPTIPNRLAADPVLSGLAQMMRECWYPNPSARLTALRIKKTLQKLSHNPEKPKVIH
Put plainly: Inhibition of BMP9-stimulated ALK1 in mouse C2C12 cells assessed as reduction in Smad1/5 phosphorylation at 0.1 to 1 uM pretreated for 2 hrs followed by BMP9-stimulation after 30 mins by western blot analysis. The format is cell-based. (In general: In western blotting, separated proteins are transferred to a membrane and probed.)

The target in data set [5] is T3, Activin receptor type-1-like (Mus musculus). Put plainly: Inhibition of BMP9-stimulated ALK1 in mouse C2C12 cells assessed as decrease in p38 phosphorylation at 0.1 to 10 uM pretreated for 2 hrs followed by BMP9-stimulation after 30 mins by western blot analysis. The format is cell-based.
Data set [6] shares this target. As to the kind of experiment: Inhibition of BMP9-stimulated ALK1 in mouse C2C12 cells assessed as decrease in MEK phosphorylation at 0.1 to 10 uM pretreated for 2 hrs followed by BMP9-stimulation after 30 mins by western blot analysis. The format is cell-based.
The target in data set [7] is T4, TGF-beta receptor type-1 (Mus musculus, UniProt Q64729).
T4 sequence (Q64729 whole entry): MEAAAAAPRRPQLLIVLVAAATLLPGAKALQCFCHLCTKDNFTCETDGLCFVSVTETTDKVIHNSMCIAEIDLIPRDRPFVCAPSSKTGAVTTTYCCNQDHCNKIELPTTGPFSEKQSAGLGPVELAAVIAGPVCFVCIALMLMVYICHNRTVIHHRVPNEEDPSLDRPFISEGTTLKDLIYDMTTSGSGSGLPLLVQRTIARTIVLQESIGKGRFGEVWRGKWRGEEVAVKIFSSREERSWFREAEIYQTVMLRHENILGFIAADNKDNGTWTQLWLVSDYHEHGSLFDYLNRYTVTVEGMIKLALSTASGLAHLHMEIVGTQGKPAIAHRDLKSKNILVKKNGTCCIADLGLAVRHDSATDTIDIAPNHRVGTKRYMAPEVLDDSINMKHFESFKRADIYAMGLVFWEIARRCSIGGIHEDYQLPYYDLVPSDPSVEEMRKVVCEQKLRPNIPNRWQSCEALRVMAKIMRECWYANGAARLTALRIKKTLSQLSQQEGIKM
Put plainly: Inhibition of ALK5 in mouse C2C12 cells assessed as decrease in TGFbeta1-induced Smad1/5 phosphorylation at 10 uM by Western blot method. The format is cell-based.

The target of data set [8] is T4, TGF-beta receptor type-1. As to the kind of experiment: Inhibition of ALK5 in mouse C2C12 cells assessed as decrease in TGFbeta1-induced Smad2/3 phosphorylation at 0.1 to 10 uM by Western blot method. The format is cell-based.
The target of data set [9] is T5, Activin receptor type-1-like (Homo sapiens, UniProt P37023). Put plainly: Inhibition of human ALK1 using casein as substrate in presence of 10 uM ATP by radiometric kinase assay.
For data set [10], the target named is Bone morphogenetic protein receptor type-1B (Homo sapiens, UniProt O00238). Put plainly: Inhibition of human ALK6 using casein as substrate in presence of 10 uM ATP by radiometric kinase assay.
In data set [11] the target is T5, Activin receptor type-1-like. As to the kind of experiment: Inhibition of human ALK1 using casein as substrate in presence of 200 uM ATP by radiometric kinase assay.
The next data set addresses Activin receptor type-1 (Homo sapiens, UniProt Q04771). Put plainly: Inhibition of human ALK2 using casein as substrate in presence of 200 uM ATP by radiometric kinase assay.
Data set [12] has as its target ALK5 (TGF-beta receptor type-1) (Homo sapiens, UniProt P36897). As to the kind of experiment: Inhibition of human ALK5 at 10 uM using casein as substrate in presence of 200 uM ATP by radiometric kinase assay relative to control. Conditions: human ALK5 kinase (TGF-beta receptor type-1), probe casein.
Data set [13] addresses ALK6 (bone morphogenetic protein receptor type-1B) (Homo sapiens, UniProt O00238). Put plainly: Inhibition of human ALK6 at 10 uM using casein as substrate in presence of 200 uM ATP by radiometric kinase assay relative to control. Conditions: probe casein.
The subject of a further data set is MDA-MB-231. Put plainly: Antiproliferative activity against human MDA-MB-231 cells up to 100 uM after 72 hrs by CellTiter 96 non-radioactive cell proliferation assay. The format is cell-based. Particulars: mda-mb-231, 72 h.
Data set [14] has as its target T3, Activin receptor type-1-like (Mus musculus). As to the kind of experiment: Inhibition of ALK1 in mouse C2C12 cells assessed as downregulation of BMP9-induced Id1 mRNA levels at 10 uM pretreated for 2 hrs followed by BMP9-stimulation after 30 mins by RT-PCR analysis. The format is cell-based.
The test system of data set [15] is HUVEC. Put plainly: Angiogenic activity in HUVEC assessed as increase in vascular endothelial tube formation incubated for 6 hrs measured every 3 hrs by matrigel based light microscopic analysis. The format is functional, cell-based. Conditions: Homo sapiens.
The subject of data set [16] is HUVEC. Put plainly: Angiogenic activity in HUVEC assessed as increase in sprout length at 2 to 50 uM by microfluidic chip based 3D angiogenesis assay. Conditions: Homo sapiens. The format is functional, cell-based.
The subject of data set [17] is HUVEC. Put plainly: Angiogenic activity in HUVEC assessed as increase in angiogenic sprouting in presence of recombinant human VEGF165 by microfluidic chip based 3D angiogenesis assay. The format is functional, cell-based.
In data set [18] the target is T2, Vascular endothelial growth factor receptor 2. Conditions: 1 uM.
Description: Inhibition of human KDR at 1 uM using poly[Glu:Tyr] (4:1) as substrate in presence of [gamma-33P]-ATP by scintillation counting method relative to control
Data set [19] deals with T1, Vascular endothelial growth factor receptor 3. Particulars: 1 uM.
Description: Inhibition of human FLT4 at 1 uM using poly[Glu:Tyr] (4:1) as substrate in presence of [gamma-33P]-ATP by scintillation counting method relative to control
For data set [20], the target named is Receptor-type tyrosine-protein kinase FLT3 (Homo sapiens) (UniProt P36888). Particulars: 1 uM.
Data set [21] concerns the target T5, Activin receptor type-1-like. Conditions: 1 uM.
Description: Inhibition of human ALK1 at 1 uM using casein as substrate in presence of [gamma-33P]-ATP by scintillation counting method relative to control
For data set [22] the target is unchanged. Particulars: 1 uM. The source holds these as a separate data set.
Description: Inhibition of ALK1 in human A375 cells assessed as decrease in MEK1/2 phosphorylation at 1 uM by western blot analysis

Calls of active or inactive are those of the source. No cut-off for these calls is given here.

T5 sequence (P37023 whole entry): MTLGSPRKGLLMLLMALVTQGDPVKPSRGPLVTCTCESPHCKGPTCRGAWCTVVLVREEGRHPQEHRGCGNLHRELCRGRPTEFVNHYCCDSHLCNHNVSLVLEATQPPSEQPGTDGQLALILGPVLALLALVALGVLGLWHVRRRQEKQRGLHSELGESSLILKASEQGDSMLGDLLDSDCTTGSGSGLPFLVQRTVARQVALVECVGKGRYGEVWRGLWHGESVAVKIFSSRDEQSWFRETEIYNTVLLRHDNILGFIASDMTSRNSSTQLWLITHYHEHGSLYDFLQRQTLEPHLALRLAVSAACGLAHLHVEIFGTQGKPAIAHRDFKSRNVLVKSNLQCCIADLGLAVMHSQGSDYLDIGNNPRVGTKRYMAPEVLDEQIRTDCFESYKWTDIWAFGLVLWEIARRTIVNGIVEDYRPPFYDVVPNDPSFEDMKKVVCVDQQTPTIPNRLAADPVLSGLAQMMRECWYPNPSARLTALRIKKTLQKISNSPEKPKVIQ
T1 sequence (P35916 whole entry): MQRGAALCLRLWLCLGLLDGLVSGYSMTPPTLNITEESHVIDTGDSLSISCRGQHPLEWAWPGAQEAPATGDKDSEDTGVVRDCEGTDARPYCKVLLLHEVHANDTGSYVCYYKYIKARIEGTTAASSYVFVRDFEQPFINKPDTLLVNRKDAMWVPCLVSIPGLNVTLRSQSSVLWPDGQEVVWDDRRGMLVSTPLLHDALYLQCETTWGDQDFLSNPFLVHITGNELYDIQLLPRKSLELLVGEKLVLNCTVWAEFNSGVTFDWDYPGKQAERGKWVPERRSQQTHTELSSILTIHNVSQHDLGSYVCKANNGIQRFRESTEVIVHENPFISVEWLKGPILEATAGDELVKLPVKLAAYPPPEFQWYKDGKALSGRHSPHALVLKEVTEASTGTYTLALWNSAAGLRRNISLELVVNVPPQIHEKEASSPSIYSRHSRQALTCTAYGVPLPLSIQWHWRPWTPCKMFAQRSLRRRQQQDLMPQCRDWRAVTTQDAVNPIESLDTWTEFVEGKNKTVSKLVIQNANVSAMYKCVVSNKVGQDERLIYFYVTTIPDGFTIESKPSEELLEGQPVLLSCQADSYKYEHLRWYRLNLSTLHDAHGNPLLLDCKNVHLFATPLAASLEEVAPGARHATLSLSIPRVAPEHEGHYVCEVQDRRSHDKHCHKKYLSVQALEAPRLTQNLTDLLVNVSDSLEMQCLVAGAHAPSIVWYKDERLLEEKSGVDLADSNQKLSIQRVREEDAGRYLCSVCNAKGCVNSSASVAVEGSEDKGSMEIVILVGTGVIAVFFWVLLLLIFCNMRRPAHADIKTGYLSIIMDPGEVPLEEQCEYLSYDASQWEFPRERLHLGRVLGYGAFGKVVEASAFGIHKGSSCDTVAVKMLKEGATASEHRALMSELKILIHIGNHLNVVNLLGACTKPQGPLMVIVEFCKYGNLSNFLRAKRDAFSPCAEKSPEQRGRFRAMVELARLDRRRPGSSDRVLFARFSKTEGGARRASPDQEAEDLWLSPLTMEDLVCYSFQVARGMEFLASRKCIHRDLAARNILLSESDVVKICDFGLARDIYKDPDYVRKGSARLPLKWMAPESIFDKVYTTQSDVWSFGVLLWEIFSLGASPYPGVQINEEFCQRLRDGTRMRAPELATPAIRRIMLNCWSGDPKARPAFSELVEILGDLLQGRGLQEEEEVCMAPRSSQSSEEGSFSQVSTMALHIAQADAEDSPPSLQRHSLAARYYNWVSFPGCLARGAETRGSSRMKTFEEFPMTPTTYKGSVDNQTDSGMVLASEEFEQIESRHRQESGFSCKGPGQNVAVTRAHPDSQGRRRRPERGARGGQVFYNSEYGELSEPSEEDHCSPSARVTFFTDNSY
T2 sequence (P35968 whole entry): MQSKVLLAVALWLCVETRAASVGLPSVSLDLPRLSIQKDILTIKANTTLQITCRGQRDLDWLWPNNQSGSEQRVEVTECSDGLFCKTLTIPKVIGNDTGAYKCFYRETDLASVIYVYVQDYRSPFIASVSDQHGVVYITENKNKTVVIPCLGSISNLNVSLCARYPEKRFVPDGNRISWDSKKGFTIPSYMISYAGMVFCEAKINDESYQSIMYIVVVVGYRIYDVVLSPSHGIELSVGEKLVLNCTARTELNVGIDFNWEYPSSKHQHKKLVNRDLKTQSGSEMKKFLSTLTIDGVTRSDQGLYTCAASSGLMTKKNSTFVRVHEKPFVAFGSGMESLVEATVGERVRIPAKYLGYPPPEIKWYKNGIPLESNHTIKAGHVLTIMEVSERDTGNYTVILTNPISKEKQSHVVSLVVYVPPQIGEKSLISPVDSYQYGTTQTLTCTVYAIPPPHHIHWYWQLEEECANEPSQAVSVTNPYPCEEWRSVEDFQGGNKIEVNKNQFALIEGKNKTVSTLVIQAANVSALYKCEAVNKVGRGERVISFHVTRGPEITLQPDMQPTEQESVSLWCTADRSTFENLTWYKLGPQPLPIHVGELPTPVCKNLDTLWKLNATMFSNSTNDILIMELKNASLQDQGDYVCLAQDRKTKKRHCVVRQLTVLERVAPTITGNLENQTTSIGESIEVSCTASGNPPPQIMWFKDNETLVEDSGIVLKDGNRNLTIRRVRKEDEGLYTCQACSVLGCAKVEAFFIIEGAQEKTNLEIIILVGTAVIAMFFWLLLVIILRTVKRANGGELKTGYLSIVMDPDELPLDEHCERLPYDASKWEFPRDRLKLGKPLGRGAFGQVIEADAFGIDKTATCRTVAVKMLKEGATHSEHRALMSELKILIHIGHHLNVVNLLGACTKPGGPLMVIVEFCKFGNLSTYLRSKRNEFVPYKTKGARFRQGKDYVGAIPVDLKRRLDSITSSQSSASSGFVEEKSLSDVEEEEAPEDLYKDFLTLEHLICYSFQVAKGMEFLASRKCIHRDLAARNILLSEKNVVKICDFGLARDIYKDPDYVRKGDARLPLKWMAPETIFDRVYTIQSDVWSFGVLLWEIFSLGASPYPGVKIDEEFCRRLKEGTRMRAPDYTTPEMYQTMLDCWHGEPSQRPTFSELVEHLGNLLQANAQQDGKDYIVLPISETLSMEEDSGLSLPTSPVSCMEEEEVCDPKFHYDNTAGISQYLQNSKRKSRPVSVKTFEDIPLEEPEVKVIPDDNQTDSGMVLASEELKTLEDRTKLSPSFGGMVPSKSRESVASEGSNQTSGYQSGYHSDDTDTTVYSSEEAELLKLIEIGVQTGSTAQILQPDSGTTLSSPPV
ALK5 (TGF-beta receptor type-1), sequence (P36897 whole entry): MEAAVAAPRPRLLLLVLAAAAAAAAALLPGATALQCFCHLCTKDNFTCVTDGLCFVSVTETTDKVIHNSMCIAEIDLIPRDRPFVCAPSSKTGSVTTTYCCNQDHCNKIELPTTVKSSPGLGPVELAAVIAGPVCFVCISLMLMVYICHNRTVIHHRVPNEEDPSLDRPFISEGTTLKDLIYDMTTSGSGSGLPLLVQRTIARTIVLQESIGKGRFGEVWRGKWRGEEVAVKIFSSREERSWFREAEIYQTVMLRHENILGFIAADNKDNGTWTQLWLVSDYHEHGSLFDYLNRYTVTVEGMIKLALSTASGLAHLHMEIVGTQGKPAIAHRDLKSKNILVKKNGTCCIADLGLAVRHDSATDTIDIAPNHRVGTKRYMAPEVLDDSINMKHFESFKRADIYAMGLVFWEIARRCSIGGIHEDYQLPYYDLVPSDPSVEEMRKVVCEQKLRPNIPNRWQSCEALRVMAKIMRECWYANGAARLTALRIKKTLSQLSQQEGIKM
ALK6 (bone morphogenetic protein receptor type-1B), sequence (O00238 whole entry): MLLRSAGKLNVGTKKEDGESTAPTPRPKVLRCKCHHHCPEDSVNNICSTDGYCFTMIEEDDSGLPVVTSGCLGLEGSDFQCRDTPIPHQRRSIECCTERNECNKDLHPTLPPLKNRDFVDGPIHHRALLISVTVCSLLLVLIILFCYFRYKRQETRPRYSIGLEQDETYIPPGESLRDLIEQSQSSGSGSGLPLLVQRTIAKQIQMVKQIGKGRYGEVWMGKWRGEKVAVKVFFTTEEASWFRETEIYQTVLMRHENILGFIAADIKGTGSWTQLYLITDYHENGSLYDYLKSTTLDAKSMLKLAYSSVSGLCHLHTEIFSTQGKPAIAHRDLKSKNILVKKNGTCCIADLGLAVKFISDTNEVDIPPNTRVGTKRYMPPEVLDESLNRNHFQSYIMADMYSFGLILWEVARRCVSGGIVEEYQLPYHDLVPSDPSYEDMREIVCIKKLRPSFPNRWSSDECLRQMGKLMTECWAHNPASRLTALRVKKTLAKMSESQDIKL
Bone morphogenetic protein receptor type-1B, sequence (O00238 whole entry): as above
Dual specificity mitogen-activated protein kinase kinase 6, sequence (P52564 whole entry): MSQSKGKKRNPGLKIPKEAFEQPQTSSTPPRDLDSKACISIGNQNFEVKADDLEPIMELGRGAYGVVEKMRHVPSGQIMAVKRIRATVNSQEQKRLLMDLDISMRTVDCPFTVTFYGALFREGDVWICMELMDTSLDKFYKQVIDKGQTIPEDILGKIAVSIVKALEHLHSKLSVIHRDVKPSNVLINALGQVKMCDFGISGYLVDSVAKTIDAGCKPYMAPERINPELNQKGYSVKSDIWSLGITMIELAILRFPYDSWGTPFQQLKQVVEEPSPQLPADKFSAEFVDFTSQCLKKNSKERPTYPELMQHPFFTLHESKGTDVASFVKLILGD

One may read the IC50 as the point on the concentration scale where inhibition reaches its midpoint. By inhibition is commonly meant how much of the control response was suppressed. As for `COc1cc(O)c2c(c1)CCC[C@H](O)[C@H](O)C(=O)CCC[C@H](C)OC2=O`, the IC50 in data set [1] is 114 nM; in [2] it was 163 nM; in data set [3], > 10000 nM; in data set [9], 62 nM; in data set [10], 727 nM; in data set [11], 1210 nM. In addition, the IC50 on Activin receptor type-1 turned out to be 3350 nM. Moreover, the inhibition entry in data set [4], in data set [14] and in data set [22] was “Active” each time. In addition, the inhibition entry in [5] and in [6] was “inactive” throughout. Moreover, the “inhibition (INH)” value is reported as “Active” at TGF-beta receptor type-1 [7] and “Not Active” at TGF-beta receptor type-1 [8]. Further, the inhibition at 10 µM in data set [12] and in [13] was < 40% throughout. Also, the Activity entry in the data set with MDA-MB-231 is “Non-Toxic”; with HUVEC [15], “Dose-dependent effect”; with HUVEC [17], “Dose-dependent effect”. Further, the outcome with HUVEC [16] was Active. Besides, the inhibition in data set [18], in data set [19], in data set [20] and in [21] was > 80% each time.
